Where “and” joins values, the source holds several entries; their conditions need not be identical. Equal values may be shown once. Entries after “also recorded” stand apart in the source; their conditions may differ. Read-outs that look alike come from different tables or passages of the source.
What was measured:
[1] = system: dopaminergic (TH+, MAP2+) neurons in primary midbrain cultures; format: cell-based, rat; settings: for mean % dopaminergic neurons ± S.E.M: n = 6; for Selective loss of dopaminergic neurons / DA neuron loss at 1 µM: vs. control; for percentage of dopaminergic neurons (mean ± SEM), time course: n = 4, control 6.30 ± 0.58
[2] = system: dopaminergic (TH+) neurites in primary midbrain cultures; experiment: Neurite length quantification of dopaminergic; format: cell-based, rat; settings: for Change in dopaminergic (TH+) neurite length / Dopaminergic (TH+) neurite length (mean ± SEM) / Decrease in dopaminergic (TH+) neurite length / Concentration at which decreased dopaminergic (TH+) neurite length was detected: 24 h; for Decrease in dopaminergic (TH+) neurite length: vs. control; for Change in dopaminergic (TH+) neurite length, time course: 24 – 72 h; for Concentration at which decreased dopaminergic (TH+) neurite length was detected: doses 100 nM – 5 µM
[3] = system: non-dopaminergic (TH-, MAP2+) neurons in primary midbrain cultures; experiment: Raw non-dopaminergic; format: cell-based, rat; settings: 1 µM, 24 – 72 h, all time-points
[4] = system: total neurons (MAP2+) in primary midbrain cultures; experiment: Neurite length quantification, pan-neuronal; format: cell-based, rat; settings: 1 µM, 24 – 72 h, all time-points
[5] = system: dopaminergic (TH+, MAP2+) neurons in primary midbrain cultures; experiment: 3-Nitrotyrosine; settings: 1 µM; for NT fluorescence intensity normalized to mean control value ± SEM, dopaminergic neurons: control 100 ± 9.1
[6] = system: non-dopaminergic (TH-, MAP2+) neurons in primary midbrain cultures; experiment: 3-Nitrotyrosine; settings: 1 µM; control 100 ± 21.61
[7] = ref PubChem Compound Database; cited from earlier work

SMILES: Cc1cnc2cc(C)c3c(nc(N)n3C)c2n1 [4,8-DiMeIQx, 2-amino-3,4,8-trimethylimidazo[4,5-f]quinoxaline]
- mean % dopaminergic neurons ± S.E.M ([1]; 100 nM, 24 h): 4.663 ± 0.3194%
- Selective loss of dopaminergic neurons ([1]; 100 nM, 24 h): 20%
- DA neuron loss at 1 µM ([1]; 1 µM, 24 h): 26%
- Change in dopaminergic (TH+) neurite length ([2]; all tested doses 100 nM – 5 µM): no significant alteration; also recorded: did not have an effect

SMILES: Nc1ccc2c(n1)[nH]c1ccccc12 [AαC, 2-amino-9H-pyrido[2,3-b]indole]
- mean % dopaminergic neurons ± S.E.M ([1]; 1 µM, 24 h): 3.932 ± 0.4382%
- DA neuron loss at 1 µM ([1]; 1 µM, 24 h): 27%
- Dopaminergic (TH+) neurite length (mean ± SEM) ([2]; 100 nM): 62.93 ± 1.743 µm
- Decrease in dopaminergic (TH+) neurite length ([2]; 100 nM): 11%

SMILES: Cc1nccc2c1[nH]c1ccccc12 [Harmane, 1-methyl-9H-pyrido[3,4-b]indole]
- Threshold for detectable selective DA neurotoxicity [1]: 200 nM
- mean % dopaminergic neurons ± S.E.M ([1]; 200 nM, 24 h): 4.677 ± 0.2123%
- Selective loss of dopaminergic neurons ([1]; 200 nM, 24 h): 15%
- percentage of dopaminergic neurons (mean ± SEM), time course ([1]; 1 µM, 24 h): 6.04 ± 0.72%
- DA neuron loss at 1 µM ([1]; 1 µM, 24 h): 21%
- percentage of dopaminergic neurons (mean ± SEM), time course ([1]; 1 µM, 48 h): 4.80 ± 0.90%
- percentage of dopaminergic neurons (mean ± SEM), time course ([1]; 1 µM, 72 h): 3.47 ± 0.53%
- Effect on non-dopaminergic (MAP2+/TH-) cell counts, time course [3]: not affected
- Dopaminergic (TH+) neurite length (mean ± SEM) ([2]; 100 nM): 62.67 ± 1.713 µm
- Decrease in dopaminergic (TH+) neurite length ([2]; 100 nM): 14%
- Change in dopaminergic (TH+) neurite length, time course ([2]; 1 µM): Decreased
- Effect on non-dopaminergic neurites, time course [4]: not affected
- Fold increase in NT immunofluorescence signal vs. control, dopaminergic neurons [5]: ~7 fold
- NT fluorescence intensity normalized to mean control value ± SEM, dopaminergic neurons [5]: 731.3 ± 94.03
- NT fluorescence intensity normalized to mean control value ± SEM, non-dopaminergic neurons [6]: 188.1 ± 23.92

SMILES: Cn1c(N)nc2c3cccnc3ccc21 [IQ, 2-amino-3-methylimidazo[4,5-f]quinoline]
- DA neuron loss at 1 µM ([1]; 1 µM, 24 h): Not significant
- mean % dopaminergic neurons ± S.E.M ([1]; 5 µM, 24 h): 4.338 ± 0.4525%
- Selective loss of dopaminergic neurons ([1]; 5 µM, 24 h): 23%
- Change in dopaminergic (TH+) neurite length ([2]; higher doses): not significant decreases
- Change in dopaminergic (TH+) neurite length ([2]; low doses (100 and 200 nM)): significant increases

SMILES: Cc1cc2ncccc2c2nc(N)n(C)c12 [MeIQ, 2-amino-3,4-dimethylimidazo[4,5-f]quinoline]
- mean % dopaminergic neurons ± S.E.M ([1]; 200 nM, 24 h): 4.372 ± 0.3579%
- Selective loss of dopaminergic neurons ([1]; 200 nM, 24 h): 23%
- percentage of dopaminergic neurons (mean ± SEM), time course ([1]; 1 µM, 24 h): 5.51 ± 0.66%
- DA neuron loss at 1 µM ([1]; 1 µM, 24 h): 25%
- percentage of dopaminergic neurons (mean ± SEM), time course ([1]; 1 µM, 48 h): 5.11 ± 0.66%
- percentage of dopaminergic neurons (mean ± SEM), time course ([1]; 1 µM, 72 h): 3.90 ± 0.81%
- Effect on non-dopaminergic (MAP2+/TH-) cell counts, time course [3]: not affected
- Change in dopaminergic (TH+) neurite length, time course ([2]; 1 µM): Decreased
- Dopaminergic (TH+) neurite length (mean ± SEM) ([2]; 1 µM): 63.58 ± 1.584 µm
- Decrease in dopaminergic (TH+) neurite length ([2]; 1 µM): 10%
- Effect on non-dopaminergic neurites, time course [4]: not affected
- Fold increase in NT immunofluorescence signal vs. control, dopaminergic neurons [5]: > 5 fold and ~4 fold
- NT fluorescence intensity normalized to mean control value ± SEM, dopaminergic neurons [5]: 362.9 ± 45.8
- NT fluorescence intensity normalized to mean control value ± SEM, non-dopaminergic neurons [6]: 130.1 ± 14.91

SMILES: Cc1cnc2ccc3c(nc(N)n3C)c2n1 [MeIQx, 2-amino-3,8-dimethylmidazo[4,5-f]quinoxaline]
- mean % dopaminergic neurons ± S.E.M ([1]; 1 µM, 24 h): 4.207 ± 0.3535%
- DA neuron loss at 1 µM ([1]; 1 µM, 24 h): 17%
- Dopaminergic (TH+) neurite length (mean ± SEM) ([2]; 1 µM): 61.97 ± 1.94 µm
- Decrease in dopaminergic (TH+) neurite length ([2]; 1 µM): 12%
- Concentration at which decreased dopaminergic (TH+) neurite length was detected [2]: 1000 nM
- Log P [7]: 1.0

SMILES: c1ccc2c(c1)[nH]c1cnccc12 [Norharmane, 9H-Pyrido[3,4-B]indole]
- mean % dopaminergic neurons ± S.E.M ([1]; 100 nM, 24 h): 4.703 ± 0.3711%
- Selective loss of dopaminergic neurons ([1]; 100 nM, 24 h): 18%
- DA neuron loss at 1 µM ([1]; 1 µM, 24 h): 20%
- Dopaminergic (TH+) neurite length (mean ± SEM) ([2]; 500 nM): 63.15 ± 1.864 µm
- Decrease in dopaminergic (TH+) neurite length ([2]; 500 nM): 11%
- Concentration at which decreased dopaminergic (TH+) neurite length was detected [2]: 500 nM
- Concentration at which decreased dopaminergic (TH+) neurite length was detected ([2]; listed as norharmane): ≥ 500 nM

SMILES: Cn1c(N)nc2ncc(-c3ccccc3)cc21 [PhIP, 2-amino-1-methyl-6-phenylimidazo[4,5-b]pyridine]
- percentage of dopaminergic neurons (mean ± SEM), time course ([1]; 1 µM, 24 h): 5.17 ± 0.95%
- mean % dopaminergic neurons ± S.E.M ([1]; 1 µM, 24 h): 4.612 ± 0.3403%
- DA neuron loss at 1 µM ([1]; 1 µM, 24 h): 19%
- percentage of dopaminergic neurons (mean ± SEM), time course ([1]; 1 µM, 48 h): 4.60 ± 0.70%
- percentage of dopaminergic neurons (mean ± SEM), time course ([1]; 1 µM, 72 h): 3.61 ± 0.45%
- Effect on non-dopaminergic (MAP2+/TH-) cell counts, time course [3]: not affected
- Change in dopaminergic (TH+) neurite length, time course ([2]; 1 µM): Decreased
- Dopaminergic (TH+) neurite length (mean ± SEM) ([2]; 1 µM): 57.76 ± 1.656 µm
- Decrease in dopaminergic (TH+) neurite length ([2]; 1 µM): 15%
- Effect on non-dopaminergic neurites, time course [4]: not affected

Source: article PMC6015749 (Neurotoxicology, 2018)
